Results reported in patent US9132164B2, “Pharmaceutical compositions comprising angiotensin-(1-9), derivatives thereof, or a vector expressing ACE2, useful for treating cardiovascular, pulmonary, cerebral, and/or renal remodeling” (PONTIFICIA UNIVERSIDAD CATOLICA DE CHILE, priority 2008, dated 2015).
Marks after values point to notes of the source that are not given here.

How the values were obtained:
Format in all cases: in vivo, Sprague Dawley rats
[1] = test system: sham and infarcted rats (left coronary artery ligation); test: Effect of candesartan and enalapril on blood pressure, morphometry and function of the left ventricle after coronary artery ligation; settings: for Infarct size LV / LVAWT / LVEDD / LVESD / LVFS / SBP / LLVWT / LVP content / LVW/BW / mRNA ANF / β-MHC: 10 mg/kg daily by gavage, 8 weeks, average ± SEM
Description: (§1) Male Sprague Dawley rats were kept in cages with access to water and food ad libitum. This procedure was performed in accordance with the Guide for the Care and Use of Laboratory Animals, published by “U.S. National Institutes of Health” (NIH publication No 85-23, revised 1985) and was approved by our Institutional Ethics Committee. For studies with enalapril and candesartan, 71 adult normotensive rats were randomly separated into two groups and underwent a sham surgery (surgery without ligation of the coronary artery, n=34) or myocardial infarction following a surgery with ligation of the left coronary artery (infarction, n=37) as previously described (Ocaranza et al, Hypertension 48:572-8, 2006). Briefly, the left coronary artery was ligated between the pulmonary artery exit and left auricle with a 7-0 silk suture under aseptic conditions in rats anaesthetized with ketamine-HCl/xilazine (35/7 mg/kg intraperitoneal, respectively). Sham rats underwent the same surgical procedure except that the suture was not passed around the left coronary artery. Myocardial infarction was confirmed by electrocardiography 24 h following surgery. Mortality rate from myocardial infarction following ligation of the left coronary artery was 25% within 48 h after occlusion. Infarct size in survivors was determined by planimetry of endocardial circumference of left ventricle on histological sections. Sham and infracted rats were randomized to receive the carrier, candesartan (10 mg/kg of body weight daily) or enalapril (10 mg/kg of body weight daily) by gavage for 8 weeks, beginning 48 h after infarction.
Systolic blood pressure (SBP) was determined by using the “tail-cuff” method by investigators who were blind to the treatment group. Left ventricle function was determined by transthoracic bidimensional echocardiography using a Sonos 5000 equipped with a 5 to 12 MHz sectorial electronic ultraband S12 Philips transducer. The following echocardiographic parameters were determined: left ventricular end-systolic diameter (LVESD), left ventricular end diastolic diameter (LVEDD), left ventricular fractional shortening (LVFS), left ventricular anterior wall thickness (LVAWT), and left ventricular posterior wall thickness (LLVWT).
The extent of left ventricular hypertrophy was calculated by the relationship among left ventricular weight (LVW), body weight (BW), mRNA relative levels of the auricular natriuretic factor (ANF), left ventricular protein content (LVP), and protein levels of β-myosinheavy chain (β-MHC) as described in (Ocaranza et al, Hypertension 48:572-8, 2006).
Left ventricular hypertrophy (LVH) was assessed by ecocardiography, relative left ventricle weight (RLVW, mg left ventricle weight (LVW)/body weight (BW)), relative levels of auricular natriuretic factor (ANF) mRNA, left ventricle protein (LVP) content, and β-myosin heavy chain (β-MHC) content are described in example 1.

[2] = Circulating angiotensin levels post coronary artery ligation (HPLC and radioimmunoassay); settings: for Ang I / Ang II / Ang II/Ang I / Ang-(1 -7) / Ang-(1-7)/Ang II / Ang-(1 -9) / Ang-(1-9)/Ang I: plasma, 10 mg/kg daily, 8 weeks, average ± SEM
Description: as §1
(§2) Plasma angiotensin and bradykinin levels were determined as described by (Ocaranza et al, Hypertension 48:572-8, 2006; Ocaranza et al, Life Sci. 78:1535-42, 2005; Campbell et al, J. Mol. Cell. Cardiol. 27:1545-60, 1995). Briefly, rats were anesthetized with a combination of ketamin (125 mg/kg) and xilazin (12.5 mg/kg) administered via intraperitoneal injection. […] Plasmas were stored at −80° C. until their extraction using C18 Sep-Pak cartridges, and peptides were acetylated. Acetylated angiotensin II, angiotensin I, angiotensin-(1-7), angiotensin-(1-9), bradykinin-(1-7) and bradykinin-(1-9) were separated by high performance liquid chromatography (HPLC) and were detected by radioimmunoassay.
(§3) Plasma angiotensin and bradykinin (BK) levels were determined by high performance liquid chromatography and radioimmunoassay as described in example No 2. Angiotensin-I levels are lower in the infarcted rats group, associated with higher levels of angiotensin-II. However, plasma angiotensin-(1-7) and angiotensin-(1,9) levels were similar in sham rats and infarcted rats. Enalapril and candesartan increase both angiotensin-(1-9) circulating levels, and -(1-7)/angiotensin-II and angiotensin-(1-9)/angiotensin-I ratios in both experimental groups. Plasma angiotensin-(1-7) levels were increased by candesartan, and bradykinin-(1-9) levels were increased by enalapril both in infarcted rats and sham rats (Tables 3 and 4).

[3] = Circulating bradykinin levels post coronary artery ligation (HPLC and radioimmunoassay); settings: for Bk-(1-7) / Bk-(1-7)/Bk-(1-9) / Bk-(1-9): plasma, 10 mg/kg daily, 8 weeks, ± SEM
Description: as §1, §2, §3

[4] = both experimental groups (sham and infarcted rats)

Structure (SMILES): CCOc1nc2cccc(C(=O)O)c2n1Cc1ccc(-c2ccccc2-c2nnn[nH]2)cc1 [candesartan]
- Infarct size LV ([1]; infarcted rats (MI)): 30 ± 1%
- LVAWT ([1]; infarcted rats (MI)): 0.9 ± 0.4 mm
- LVEDD ([1]; infarcted rats (MI)): 8.0 ± 0.3 mm
- LVESD ([1]; infarcted rats (MI)): 5.9 ± 0.4 mm
- LVFS ([1]; infarcted rats (MI)): 22 ± 2 %
- SBP ([1]; infarcted rats (MI)): 88 ± 4*^#¶ mm Hg
- LLVWT ([1]; sham rats): 1.1 ± 0.0 mm
- LVAWT ([1]; sham rats): 1.1 ± 0.4 mm
- LVEDD ([1]; sham rats): 7.7 ± 0.2 mm
- LVESD ([1]; sham rats): 5.1 ± 0.1 mm
- LVFS ([1]; sham rats): 30 ± 2%
- LVP content ([1]; sham rats): 11.6 ± 1.1 mg
- LVW/BW ([1]; sham rats): 2.7 ± 0.1 mg/g
- SBP ([1]; sham rats): 84 ± 4*^#¶ mm Hg
- mRNA ANF ([1]; sham rats): 0.7 ± 0.2 times
- β-MHC ([1]; sham rats): 1.1 ± 0.2 times
- Ang I ([2]; infarcted rats (MI)): 30.7 ± 1.9 fmol/g
- Ang II ([2]; infarcted rats (MI)): 34.6 ± 4.2*^¶ fmol/g
- Ang II/Ang I ([2]; infarcted rats (MI)): 4.5 ± 0.6*^#¶
- Ang-(1 -7) ([2]; infarcted rats (MI)): 14.4 ± 2.7*^#¶ fmol/g
- Ang-(1-7)/Ang II ([2]; infarcted rats (MI)): 1.02 ± 0.06*^#¶
- Ang-(1 -9) ([2]; infarcted rats (MI)): 43.8 ± 2.9 *^#¶ fmol/g
- Ang-(1-9)/Ang I ([2]; infarcted rats (MI)): 2.8 ± 1.1*^#¶
- Ang I ([2]; sham rats): 22.6 ± 5.3 fmol/g
- Ang II ([2]; sham rats): 38.6 ± 7.2 fmol/g
- Ang II/Ang I ([2]; sham rats): 3.3 ± 0.9
- Ang-(1 -7) ([2]; sham rats): 10.9 ± 1.6*^#¶ fmol/g
- Ang-(1-7)/Ang II ([2]; sham rats): 0.49 ± 0.15
- Ang-(1 -9) ([2]; sham rats): 36.2 ± 4.1 fmol/g
- Ang-(1-9)/Ang I ([2]; sham rats): 2.6 ± 0.7
- Bk-(1-7) ([3]; infarcted rats (MI)): 5.44 ± 1.60 fmol/g
- Bk-(1-7)/Bk-(1-9) ([3]; infarcted rats (MI)): 1.18 ± 0.21^¶
- Bk-(1-9) ([3]; infarcted rats (MI)): 4.08 ± 1.43^¶ fmol/g
- Bk-(1-7) ([3]; sham rats): 4.41 ± 1.5 fmol/g
- Bk-(1-7)/Bk-(1-9) ([3]; sham rats): 1.69 ± 0.51
- Bk-(1-9) ([3]; sham rats): 4.30 ± 1.36 fmol/g

Structure (SMILES): CCOC(=O)[C@H](CCc1ccccc1)N[C@@H](C)C(=O)N1CCC[C@H]1C(=O)O [enalapril]
- Infarct size LV ([1]; infarcted rats (MI)): 31 ± 2%
- LLVWT ([1]; infarcted rats (MI)): 1.5 ± 0.1 mm
- LVAWT ([1]; infarcted rats (MI)): 0.9 ± 0.1 mm
- LVEDD ([1]; infarcted rats (MI)): 7.1 ± 0.2 mm
- LVESD ([1]; infarcted rats (MI)): 5.4 ± 0.3 mm
- LVFS ([1]; infarcted rats (MI)): 21 ± 1 %
- SBP ([1]; infarcted rats (MI)): 110 ± 3 mm Hg
- left ventricle dilatation ([1]; infarcted rats, week 8): significantly prevented
- LLVWT ([1]; sham rats): 1.4 ± 0.0 mm
- LVAWT ([1]; sham rats): 1.3 ± 0.2 mm
- LVEDD ([1]; sham rats): 7.5 ± 0.3 mm
- LVESD ([1]; sham rats): 5.2 ± 0.1 mm
- LVFS ([1]; sham rats): 30 ± 1%
- LVP content ([1]; sham rats): 12.4 ± 0.8 mg
- LVW/BW ([1]; sham rats): 2.7 ± 0.2 mg/g
- SBP ([1]; sham rats): 113 ± 2 mm Hg
- mRNA ANF ([1]; sham rats): 0.9 ± 0.1 times
- β-MHC ([1]; sham rats): 1.3 ± 0.2 times
- -(1-7)/angiotensin-II ratio [2, 4]: increase
- angiotensin-(1-9) circulating levels [2, 4]: increase
- angiotensin-(1-9)/angiotensin-I ratio [2, 4]: increase
- Ang I ([2]; infarcted rats (MI)): 32.4 ± 0.8 fmol/g
- Ang II ([2]; infarcted rats (MI)): 23.3 ± 5.4 fmol/g
- Ang II/Ang I ([2]; infarcted rats (MI)): 0.72 ± 0.1
- Ang-(1 -7) ([2]; infarcted rats (MI)): 3.8 ± 0.6 fmol/g
- Ang-(1-7)/Ang II ([2]; infarcted rats (MI)): 0.26 ± 0.02
- Ang-(1 -9) ([2]; infarcted rats (MI)): 29 ± 3 fmol/g
- Ang-(1-9)/Ang I ([2]; infarcted rats (MI)): 0.89 ± 0.02
- Ang I ([2]; sham rats): 30.7 ± 1.0 fmol/g
- Ang II ([2]; sham rats): 15.4 ± 3.8 fmol/g
- Ang II/Ang I ([2]; sham rats): 0.45 ± 0.05
- Ang-(1 -7) ([2]; sham rats): 4.1 ± 0.5 fmol/g
- Ang-(1-7)/Ang II ([2]; sham rats): 0.25 ± 0.07
- Ang-(1 -9) ([2]; sham rats): 25 ± 5 fmol/g
- Ang-(1-9)/Ang I ([2]; sham rats): 0.75 ± 0.03
- bradykinin-(1-9) levels ([3]; both in infarcted rats and sham rats): increased
- Bk-(1-7) ([3]; infarcted rats (MI)): 1.40 ± 0.17 fmol/g
- Bk-(1-7)/Bk-(1-9) ([3]; infarcted rats (MI)): 0.17 ± 0.06
- Bk-(1-9) ([3]; infarcted rats (MI)): 7.89 ± 1.22 fmol/g
- Bk-(1-7) ([3]; sham rats): 1.48 ± 0.46 fmol/g
- Bk-(1-7)/Bk-(1-9) ([3]; sham rats): 0.19 ± 0.04
- Bk-(1-9) ([3]; sham rats): 9.53 ± 2.99 fmol/g
